Laboratory results published in ChEMBL document CHEMBL3407338, “Synthesis and structure-activity relationship of novel 1,4-diazabicyclo[2.2.2]octane derivatives as potent antimicrobial agents” (Eur J Med Chem, 2015).
In brackets after ≈: the same amount, converted by molar mass.

Key:
Escherichia coli [1] = experiment: Antimicrobial activity against Escherichia coli ATCC 25922 at 1 ug/ml after 24 hrs by agar diffusion method; format: functional; settings: ATCC 25922, 24 h, read-out: DIZ
Candida albicans [2] = experiment: Antimicrobial activity against Candida albicans ATCC 32354 at 1 ug/ml after 24 hrs by agar diffusion method; format: functional; settings: ATCC 32354, 24 h, read-out: DIZ
Staphylococcus aureus [3] = experiment: Antimicrobial activity against 10^4 CFU/ml Staphylococcus aureus ATCC 25923 after 22 hrs by serial microdilution method; format: functional; settings: ATCC 25923, 22 h
Pseudomonas aeruginosa [4] = experiment: Antimicrobial activity against Pseudomonas aeruginosa ATCC 9027 at 1 ug/ml after 24 hrs by agar diffusion method; format: functional; settings: ATCC 9027, 24 h, read-out: DIZ
Candida albicans [5] = experiment: Antimicrobial activity against 10^7 CFU/ml Candida albicans ATCC 32354 after 22 hrs by serial microdilution method; format: functional; settings: ATCC 32354, 22 h
Staphylococcus aureus [6] = experiment: Antimicrobial activity against 10^7 CFU/ml Staphylococcus aureus ATCC 25923 after 22 hrs by serial microdilution method; format: functional; settings: ATCC 25923, 22 h
Bacillus subtilis [7] = experiment: Antimicrobial activity against 10^7 CFU/ml Bacillus subtilis ATCC 6633 after 22 hrs by serial microdilution method; format: functional; settings: ATCC 6633, 22 h
Salmonella enterica [8] = experiment: Antimicrobial activity against Salmonella enterica ATCC 14028 at 1 ug/ml after 24 hrs by agar diffusion method; format: functional; settings: ATCC 14028, 24 h, read-out: DIZ
Pseudomonas aeruginosa [9] = experiment: Antimicrobial activity against 10^4 CFU/ml Pseudomonas aeruginosa ATCC 9027 after 22 hrs by serial microdilution method; format: functional; settings: ATCC 9027, 22 h
Pseudomonas aeruginosa [10] = experiment: Antimicrobial activity against 10^7 CFU/ml Pseudomonas aeruginosa ATCC 9027 after 22 hrs by serial microdilution method; format: functional; settings: ATCC 9027, 22 h
[11] = Cytotoxicity against mouse LMTK cells after 72 hrs by MTT assay; format: cell-based; settings: L-M(TK-)
Salmonella enterica [12] = experiment: Antimicrobial activity against 10^7 CFU/ml Salmonella enterica ATCC 14028 after 22 hrs by serial microdilution method; format: functional; settings: ATCC 14028, 22 h
Staphylococcus aureus [13] = experiment: Antimicrobial activity against Staphylococcus aureus ATCC 25923 at 1 ug/ml after 24 hrs by agar diffusion method; format: functional; settings: ATCC 25923, 24 h, read-out: DIZ
MEF = experiment: Cytotoxicity against mouse MEF cells after 72 hrs by MTT assay; format: cell-based
HEK-293T = experiment: Cytotoxicity against human HEK293T cells after 72 hrs by MTT assay; format: cell-based
Salmonella enterica [14] = experiment: Antimicrobial activity against 10^4 CFU/ml Salmonella enterica ATCC 14028 after 22 hrs by serial microdilution method; format: functional; settings: ATCC 14028, 22 h
Escherichia coli [15] = experiment: Antimicrobial activity against 10^7 CFU/ml Escherichia coli ATCC 25922 after 22 hrs by serial microdilution method; format: functional; settings: ATCC 25922, 22 h
Bacillus subtilis [16] = experiment: Antimicrobial activity against Bacillus subtilis ATCC 6633 at 1 ug/ml after 24 hrs by agar diffusion method; format: functional; settings: ATCC 6633, 24 h, read-out: DIZ
RPMI-8226 = experiment: Cytotoxicity against human RPMI8226 cells after 72 hrs by MTT assay; format: cell-based; settings: RPMI-8226, 72 h
Bacillus subtilis [17] = experiment: Antimicrobial activity against 10^4 CFU/ml Bacillus subtilis ATCC 6633 after 22 hrs by serial microdilution method; format: functional; settings: ATCC 6633, 22 h
Candida albicans [18] = experiment: Antimicrobial activity against 10^4 CFU/ml Candida albicans ATCC 32354 after 22 hrs by serial microdilution method; format: functional; settings: ATCC 32354, 22 h
Escherichia coli [19] = experiment: Antimicrobial activity against 10^4 CFU/ml Escherichia coli ATCC 25922 after 22 hrs by serial microdilution method; format: functional; settings: ATCC 25922, 22 h
Candida albicans [20] = experiment: Antimicrobial activity against Candida albicans ATCC 32354 at 0.1 ug/ml after 24 hrs by agar diffusion method; format: functional; settings: ATCC 32354, 24 h, read-out: DIZ
Pseudomonas aeruginosa [21] = experiment: Antimicrobial activity against Pseudomonas aeruginosa ATCC 9027 at 0.1 ug/ml after 24 hrs by agar diffusion method; format: functional; settings: ATCC 9027, 24 h, read-out: DIZ
Staphylococcus aureus [22] = experiment: Antimicrobial activity against Staphylococcus aureus ATCC 25923 at 0.1 ug/ml after 24 hrs by agar diffusion method; format: functional; settings: ATCC 25923, 24 h, read-out: DIZ
Escherichia coli [23] = experiment: Antimicrobial activity against Escherichia coli ATCC 25922 at 0.1 ug/ml after 24 hrs by agar diffusion method; format: functional; settings: ATCC 25922, 24 h, read-out: DIZ
Bacillus subtilis [24] = experiment: Antimicrobial activity against Bacillus subtilis ATCC 6633 at 0.1 ug/ml after 24 hrs by agar diffusion method; format: functional; settings: ATCC 6633, 24 h, read-out: DIZ
Salmonella enterica [25] = experiment: Antimicrobial activity against Salmonella enterica ATCC 14028 at 0.1 ug/ml after 24 hrs by agar diffusion method; format: functional; settings: ATCC 14028, 24 h, read-out: DIZ

Compound	zone of inhibition at 1 µg/mL (Escherichia coli [1]) [mm]	zone of inhibition at 1 µg/mL (Candida albicans [2]) [mm]	MBC (Staphylococcus aureus [3]) [µg/mL]	MIC (Staphylococcus aureus [3]) [µg/mL]	zone of inhibition at 1 µg/mL (Pseudomonas aeruginosa [4]) [mm]	MBC (Candida albicans [5]) [µg/mL]	MIC (Candida albicans [5]) [µg/mL]	MBC (Staphylococcus aureus [6]) [µg/mL]	MIC (Staphylococcus aureus [6]) [µg/mL]	MBC (Bacillus subtilis [7]) [µg/mL]	MIC (Bacillus subtilis [7]) [µg/mL]	zone of inhibition at 1 µg/mL (Salmonella enterica [8]) [mm]	MBC (Pseudomonas aeruginosa [9]) [µg/mL]	MIC (Pseudomonas aeruginosa [9]) [µg/mL]	zone of inhibition at 0.1 µg/mL (Candida albicans [20]) [mm]	zone of inhibition at 0.1 µg/mL (Pseudomonas aeruginosa [21]) [mm]	zone of inhibition at 0.1 µg/mL (Staphylococcus aureus [22]) [mm]	zone of inhibition at 0.1 µg/mL (Escherichia coli [23]) [mm]	zone of inhibition at 0.1 µg/mL (Bacillus subtilis [24]) [mm]	zone of inhibition at 0.1 µg/mL (Salmonella enterica [25]) [mm]	other results
CCCCCCCCCCCCCC[N+]12CC[N+](CCCCC[N+]34CC[N+](CCCCCCCCCCCCCC)(CC3)CC4)(CC1)CC2.[Br-].[Br-].[Br-].[Br-]	7	0	100	6.3	6	25	25	> 100	50	50	12.5	7	50	50	–	–	–	–	–	–	MBC (Pseudomonas aeruginosa [10]): > 100 µg/mL; MIC (Pseudomonas aeruginosa [10]): > 100 µg/mL; IC50 [11]: 219 µg/mL; MBC (Salmonella enterica [12]): > 100 µg/mL; MIC (Salmonella enterica [12]): 100 µg/mL; zone of inhibition at 1 µg/mL (Staphylococcus aureus [13]): 8 mm; IC50 (MEF): 127 µg/mL; IC50 (HEK-293T): 400 µg/mL; MBC (Salmonella enterica [14]): > 100 µg/mL; MIC (Salmonella enterica [14]): 100 µg/mL; MBC (Escherichia coli [15]): > 100 µg/mL; MIC (Escherichia coli [15]): 50 µg/mL; zone of inhibition at 1 µg/mL (Bacillus subtilis [16]): 7 mm; IC50 (RPMI-8226): 252 µg/mL; MBC (Bacillus subtilis [17]): 12.5 µg/mL; MIC (Bacillus subtilis [17]): 12.5 µg/mL; MBC (Candida albicans [18]): 25 µg/mL; MIC (Candida albicans [18]): 25 µg/mL; MBC (Escherichia coli [19]): 50 µg/mL; MIC (Escherichia coli [19]): 25 µg/mL
CCCCCCCCCCCCCCC[N+]12CC[N+](CCCCC[N+]34CC[N+](CCCCCCCCCCCCCCC)(CC3)CC4)(CC1)CC2	–	–	–	–	–	–	–	–	–	–	–	–	–	–	0	0	0	0	0	0	–
CCCCCCCCCCCCCCCC[N+]12CC[N+](CCCCC[N+]34CC[N+](CCCCCCCCCCCCCCCC)(CC3)CC4)(CC1)CC2	–	–	–	–	–	–	–	–	–	–	–	–	–	–	0	0	0	0	0	0	–
CCCCCCCCCCCCCCCCCC[N+]12CC[N+](CCCCC[N+]34CC[N+](CCCCCCCCCCCCCCCCCC)(CC3)CC4)(CC1)CC2	–	–	–	–	–	–	–	–	–	–	–	–	–	–	0	0	0	0	0	0	–
CC[C@@]1(O)C(=O)OCc2c1cc1n(c2=O)Cc2cc3ccccc3nc2-1 [CAMPTOTHECIN]	–	–	–	–	–	–	–	–	–	–	–	–	–	–	–	–	–	–	–	–	IC50 [11]: 11.7 µg/mL (≈ 33.6 µM); IC50 (MEF): 5.87 µg/mL (≈ 16.9 µM); IC50 (RPMI-8226): 2.05 µg/mL (≈ 5.88 µM)
O=C(O)c1cn(C2CC2)c2cc(N3CCNCC3)c(F)cc2c1=O [CIPROFLOXACIN]	30	0	< 0.8	< 0.8	20	100 (≈ 302 µM)	100 (≈ 302 µM)	< 0.8	< 0.8	< 0.8	< 0.8	35	3.1 (≈ 9.36 µM)	1.6 (≈ 4.83 µM)	–	–	–	–	–	–	MBC (Pseudomonas aeruginosa [10]): 3.1 µg/mL (≈ 9.36 µM); MIC (Pseudomonas aeruginosa [10]): 1.6 µg/mL (≈ 4.83 µM); MBC (Salmonella enterica [12]): < 0.8 µg/mL; MIC (Salmonella enterica [12]): < 0.8 µg/mL; zone of inhibition at 1 µg/mL (Staphylococcus aureus [13]): 25 mm; MBC (Salmonella enterica [14]): < 0.8 µg/mL; MIC (Salmonella enterica [14]): < 0.8 µg/mL; MBC (Escherichia coli [15]): < 0.8 µg/mL; MIC (Escherichia coli [15]): < 0.8 µg/mL; zone of inhibition at 1 µg/mL (Bacillus subtilis [16]): 30 mm; MBC (Bacillus subtilis [17]): < 0.8 µg/mL; MIC (Bacillus subtilis [17]): < 0.8 µg/mL; MBC (Candida albicans [18]): > 100 µg/mL; MIC (Candida albicans [18]): > 100 µg/mL; MBC (Escherichia coli [19]): < 0.8 µg/mL; MIC (Escherichia coli [19]): < 0.8 µg/mL
